The values below come from ChEMBL document CHEMBL3228010, “Potential antitumor agents. 29. Quantitative structure-activity relationships for the antileukemic bisquaternary ammonium heterocycles” (J Med Chem, 1979).

The test system of data set [1] is L1210. Kind of data set: Antitumor activity against mouse L1210 cells […] in ip dosed C3H X DBA2 F1 hybrid mouse on day 0 and dosed at LD10 level once daily on days 1 to 5 assessed as increase in life span relative to control. The format is functional.
A short description of data set [2]: Lipophilic-hydrophilic balance, Rm of the compound by partition chromatography. The format is physicochemical.
The subject of data set [3] is L1210. Description: Antitumor activity against mouse L1210 cells […] in ip dosed C3H X DBA2 F1 hybrid mouse on day 0 and dosed once daily on days 1 to 5 assessed as increase in life span relative to control. The format is functional.
Data set [4] is described as follows: Displacement of ethidium from poly[d(A-T)]-poly[d(A-T)] DNA by fluorimetric method.
A further data set is filed under the species Bos taurus. Kind of data set: Displacement of ethidium from calf thymus DNA by fluorimetric method.
A short description of data set [5]: Displacement of ethidium from poly[d(G-C)]-poly[d(G-C)] DNA (unknown origin) by fluorimetric method.
For a further data set, the system named is Mus musculus. Description: Toxicity in ip dosed C3H X DBA2 F1 hybrid mouse […] with mouse L1210 cells on day 0 and dosed once daily on days 1 to 5 measured after 50 days. The format is organism-based. As to conditions: in vivo, 1200 h.

Consider `COc1ccc2c(c1)c(Nc1ccc(C(=O)Nc3ccc(Nc4cc[n+](C)cc4)cc3)cc1)cc[n+]2C.Cc1ccc(S(=O)(=O)[O-])cc1.Cc1ccc(S(=O)(=O)[O-])cc1`, for which the “log(ILSmax)” value in the data set on L1210 [1] was found to be 2.2. This molecule yielded a Rm in data set [2] of 0.46. In the data set on L1210 [3], the D40 is 1.5 mg/kg. Further, the C50 in data set [4] came to 0.19 µM; in the data set listed under Bos taurus it was 0.68 µM; in data set [5] it was 1.15 µM. The same molecule gave an LD10 in the data set with Mus musculus of 50 mg/kg.

For `CC[n+]1ccc(Nc2ccc(NC(=O)c3ccc(Nc4cc(C)[n+](CC)c5ccc(N)cc45)cc3N)cc2)cc1.[I-].[I-]`, the “log(ILSmax)” value with L1210 [1] turned out to be 1.86. The molecule also yielded a Rm in data set [2] of 0.34. Besides, the D40 in the data set with L1210 [3] stood at 7.2 mg/kg. For the same molecule, the C50 in data set [4] stood at 0.31 µM; in the data set listed under Bos taurus, 0.5 µM; in data set [5] it was 1.17 µM. Further, the LD10 in the data set on Mus musculus came out at 20 mg/kg.

Turning to `C[n+]1ccc(Nc2ccc(NC(=O)c3ccc(Nc4c(-c5ccccc5)c[n+](C)c5ccc(N)cc45)cc3)cc2)cc1.[Br-].[Br-]`, in the data set with L1210 [1], the “log(ILSmax)” value is 1.78. Besides, the Rm in data set [2] came out at 0.65. The D40 in the data set with L1210 [3] worked out at 10 mg/kg. The C50 in data set [4] is 0.15 µM; in the data set filed under Bos taurus, 0.39 µM; in data set [5], 0.63 µM. Besides, the LD10 in the data set with Mus musculus was 22 mg/kg.

Consider `CCC[n+]1cccc(NC(=O)c2ccc(NC(=O)c3ccc(C(=O)Nc4ccc(C(=O)Nc5ccc[n+](CCC)c5)c(N)c4)c(N)c3)cc2N)c1.Cc1ccc(S(=O)(=O)[O-])cc1.Cc1ccc(S(=O)(=O)[O-])cc1`, for which the “log(ILSmax)” value with L1210 [1] amounted to 2.1. Also, the Rm in data set [2] is given as -0.51. Besides, the D40 in the data set with L1210 [3] was determined as 2.2 mg/kg. The C50 in data set [4] is 0.08 µM; in the data set filed under Bos taurus, 0.26 µM; in data set [5], 0.48 µM. In addition, the LD10 in the data set with Mus musculus is 10 mg/kg.

Consider `C[n+]1ccc(Nc2ccc(S(=O)(=O)Nc3ccc(Nc4c5ccccc5[n+](C)c5cc(N)ccc45)cc3)cc2)cc1.[O-][Cl+3]([O-])([O-])[O-].[O-][Cl+3]([O-])([O-])[O-]`, for which the “log(ILSmax)” value in the data set with L1210 [1] was 2.18. The same molecule showed a Rm in data set [2] of 0.57. Also, in the data set with L1210 [3], the D40 was 5 mg/kg. Further, the C50 in data set [4] stood at 0.07 µM; in the data set listed under Bos taurus, 0.1 µM; in data set [5], 0.12 µM. In the data set on Mus musculus, this molecule returned an LD10 of 35 mg/kg.

With `C[n+]1ccc(Nc2ccc(C(=O)Nc3ccc(Nc4cc[n+](C)c5ccc(N)cc45)cc3)cc2)cc1.Cc1ccc(S(=O)(=O)[O-])cc1.Cc1ccc(S(=O)(=O)[O-])cc1`, in the data set with L1210 [1], the “log(ILSmax)” value is 2.3. In data set [2], the Rm is listed as 0.05. Moreover, the D40 with L1210 [3] came to 1.2 mg/kg. Moreover, the C50 is 0.12 µM in data set [4], 0.6 µM in the data set filed under Bos taurus and 1.2 µM in data set [5]. Further, the LD10 in the data set on Mus musculus was 11 mg/kg.

Take `Br.C/C(=N\NC(=N)N)c1ccc(NC(=O)c2ccc(Nc3cc[n+](C)c4ccc(N)cc34)cc2)cc1.[Br-]`: the “log(ILSmax)” value in the data set with L1210 [1] stood at 2.31. The molecule further gave a Rm in data set [2] of -0.45. In addition, the D40 in the data set on L1210 [3] was 2.1 mg/kg. Also, the C50 in data set [4] was 0.11 µM; in the data set listed under Bos taurus, 0.4 µM; in data set [5], 0.5 µM. In the data set with Mus musculus, this molecule gave an LD10 of 28 mg/kg.

For the molecule `Cc1ccc(S(=O)(=O)[O-])cc1.Cc1ccc(S(=O)(=O)[O-])cc1.Cc1ccc2c(c1)c(Nc1ccc(C(=O)Nc3ccc(Nc4cc[n+](C)cc4)cc3)cc1)cc[n+]2C`, the “log(ILSmax)” value in the data set with L1210 [1] is listed as 2.17. In data set [2], this molecule returned a Rm of 0.51. Further, in the data set with L1210 [3], the D40 stood at 1 mg/kg. Further, the C50 in data set [4] worked out at 0.17 µM; in the data set listed under Bos taurus, 1.05 µM; in data set [5], 2.28 µM. Moreover, the LD10 with Mus musculus worked out at 15 mg/kg.

With `C[n+]1ccc(Nc2ccc(NC(=O)/C=C/c3ccc(C(=O)Nc4ccc(Nc5cc[n+](C)cc5)c(N)c4)cc3)cc2N)cc1.Cc1ccc(S(=O)(=O)[O-])cc1.Cc1ccc(S(=O)(=O)[O-])cc1`, in the data set with L1210 [1], the “log(ILSmax)” value came out at 2.3. Moreover, in data set [2], the Rm was found to be 0.04. Also, in the data set with L1210 [3], the D40 worked out at 1.4 mg/kg. Besides, the C50 in data set [4] was 0.08 µM; in the data set listed under Bos taurus, 1.5 µM; in data set [5] it was 1.5 µM. In addition, the LD10 with Mus musculus worked out at 6.7 mg/kg.
